Data as given in PubChem BioAssay (NCI).
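Step 1: Grow cells in 96-well plates. Step 2: Expose to compound for 48 hours at 5 concentrations. Step 3: Interpolate endpoints linearly; if unreached, use highest concentration. TGI: concentration producing complete growth inhibition.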

Tests used:
Test in all cases: growth of human tumour cells (NCI), 48 h
EKVX NSCLC = test system: EKVX NSCLC
HCT-116 colon = test system: HCT-116 colon
UACC-257 melanoma = test system: UACC-257 melanoma
NCI/ADR-RES ovarian = test system: NCI/ADR-RES ovarian
HOP-92 NSCLC = test system: HOP-92 NSCLC
SNB-19 CNS = test system: SNB-19 CNS
OVCAR-3 ovarian = test system: OVCAR-3 ovarian
A549 NSCLC = test system: A549 NSCLC
HCC-2998 colon = test system: HCC-2998 colon
OVCAR-5 ovarian = test system: OVCAR-5 ovarian
BT-549 breast = test system: BT-549 breast
MCF7 breast = test system: MCF7 breast
HS 578T breast = test system: HS 578T breast
UO-31 renal = test system: UO-31 renal
SF-295 CNS = test system: SF-295 CNS
OVCAR-4 ovarian = test system: OVCAR-4 ovarian
HT29 colon = test system: HT29 colon
CAKI-1 renal = test system: CAKI-1 renal
MALME-3M melanoma = test system: MALME-3M melanoma
NCI-H23 lung = test system: NCI-H23 lung

| SMILES | TGI (EKVX NSCLC) | TGI (HCT-116 colon) | TGI (UACC-257 melanoma) | TGI (NCI/ADR-RES ovarian) | TGI (HOP-92 NSCLC) | TGI (SNB-19 CNS) | TGI (OVCAR-3 ovarian) | TGI (A549 NSCLC) | TGI (HCC-2998 colon) | TGI (OVCAR-5 ovarian) | TGI (BT-549 breast) | TGI (MCF7 breast) | TGI (HS 578T breast) | TGI (UO-31 renal) | TGI (SF-295 CNS) | TGI (OVCAR-4 ovarian) | TGI (HT29 colon) | TGI (CAKI-1 renal) | TGI (MALME-3M melanoma) | TGI (NCI-H23 lung) |
| --- | --- | --- | --- | --- | --- | --- | --- | --- | --- | --- | --- | --- | --- | --- | --- | --- | --- | --- | --- | --- |
| COC(=O)c1cc(=O)n(-c2ccc3nn(C)nc3c2)cc1C(=O)OC | > 100 µM | > 100 µM | > 100 µM | > 100 µM | > 100 µM | > 100 µM | > 100 µM | > 100 µM | > 100 µM | > 100 µM | > 100 µM | > 100 µM | > 100 µM | > 100 µM | > 100 µM | > 100 µM | > 100 µM | > 100 µM | > 100 µM | > 100 µM |
| CCC/C(Cl)=N/OC(=O)Nc1cc(C(F)(F)F)ccc1OC | 19.9 µM | 22.8 µM | 30.9 µM | 33.1 µM | 6.56 µM | 31.5 µM | 30.3 µM | 34.6 µM | 30.6 µM | 32.1 µM | 28.8 µM | 27.7 µM | > 72.2 µM | 29.9 µM | 32.3 µM | 9.75 µM | 44.1 µM | 9.01 µM | 7.34 µM | 37.2 µM |
| Cc1cc2nc(C=C(C(F)(F)F)C(F)(F)F)sc2cc1C | 7.27 µM | 2.93 µM | 13.6 µM | 14.6 µM | 16.2 µM | 9.89 µM | 5.63 µM | 26.7 µM | 8.36 µM | 8.66 µM | 4.64 µM | 12.5 µM | 9.69 µM | 7.17 µM | 13.4 µM | 14.9 µM | 9.93 µM | 8.24 µM | 4.56 µM | 3.5 µM |
| CC(=O)OCC1OC(c2c(OC(C)=O)cc(C)c3c(=O)cc(/C(C(C)=O)=C(\C)O)oc23)C(OC(C)=O)C(OC(C)=O)C1OC(C)=O (stereo not given) | > 100 µM | > 100 µM | > 100 µM | > 100 µM | > 100 µM | > 100 µM | > 100 µM | > 100 µM | > 100 µM | > 100 µM | > 100 µM | > 100 µM | > 100 µM | > 100 µM | > 100 µM | > 100 µM | > 100 µM | > 100 µM | > 100 µM | > 100 µM |
| O=C(O)CC(NC(=O)/C(=C/c1ccccc1)NC(=O)c1ccccc1)C(=O)O (stereo not given) | > 100 µM | > 100 µM | > 100 µM | > 100 µM | > 100 µM | > 100 µM | > 100 µM | > 100 µM | > 100 µM | > 100 µM | > 100 µM | > 100 µM | > 100 µM | > 100 µM | > 100 µM | > 100 µM | > 100 µM | > 100 µM | > 100 µM | > 100 µM |
| O=C(NCCCNCCN1C(=O)c2cccc3cc([N+](=O)[O-])cc(c23)C1=O)c1cc(-c2ccccc2)nc2ccccc12 | 22.8 µM | 16.8 µM | 3.95 µM | 17.3 µM | 15 µM | 18.9 µM | 18.9 µM | 15.7 µM | 3.05 µM | 18.6 µM | 20.2 µM | 6.51 µM | 12.5 µM | 7.46 µM | 14.8 µM | 15.1 µM | 2.84 µM | 18.9 µM | 3.24 µM | 7.55 µM |
| CCOC(=O)CC1(Cc2ccc(OCc3ccccc3)cc2)C(=O)OC(c2ccccc2)N1C(=O)c1ccccc1 (stereo not given) | > 100 µM | > 100 µM | > 100 µM | > 100 µM | > 100 µM | > 100 µM | > 100 µM | > 100 µM | 84.7 µM | > 100 µM | > 100 µM | > 100 µM | > 100 µM | > 100 µM | > 100 µM | > 100 µM | > 100 µM | > 100 µM | > 100 µM | > 100 µM |
| CC(=O)c1cc2c(s1)C(=O)c1sccc1C2=O | 0.475 µM | 0.489 µM | 0.0289 µM | 0.309 µM | 0.746 µM | 0.202 µM | 0.0382 µM | 0.433 µM | 0.392 µM | 0.158 µM | 0.0321 µM | 36.8 µM | 0.198 µM | 0.0908 µM | 0.0852 µM | 0.195 µM | 0.426 µM | 0.413 µM | 0.0313 µM | 0.0378 µM |
